From patent publication US20260028354A1, “TETRAHYDRONAPHTHALENE DERIVATIVES AS ESTROGEN RECEPTOR DEGRADERS” (REGENT OF THE UNIVERSITY OF MICHIGAN, priority 2022, published 2026)
Like-named read-outs stand apart in the source and are kept apart here.

Experiments:
[1] = biological target: CRBN/DDB1 (Homo sapiens (Human), UniProt Q96SW2); format: binding; conditions: His tagged CRBN+DDB1, Cy5-labeled Thalidomide probe, one hour; read-out: CRBN HTRF IC50
Protocol: The binding potency was determined using HTRF assay technology (Perkin Elmer). Compounds were serially diluted in DMSO and […] volume was transferred to white 384-well plate.

[2] = biological target: ERα_LBD (GST) (Homo sapiens (Human), UniProt P03372); assay: IC50 measurements for binding to ERα_LBD (GST), LanthaScreen TR-FRET competitive binding; conditions: ERα_LBD (GST) 4 nM, Fluormone ES2 Green tracer, 60 min; read-out: ERα HTRF IC50
In short: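 Competitive TR-FRET displacement of Fluormone ES2 Green tracer (3 nM) from GST-tagged human ERα LBD (4 nM) with Tb anti-GST (2 nM), in nuclear receptor buffer K plus 5 mM DTT, 1% DMSO. 60 min at room temperature, dark; 520/495 nm ratio vs log[compound] fitted sigmoidally for IC50.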

[3] = biological target: ER in MCF-7 cells (Homo sapiens (Human), UniProt P03372); assay: In-cell Western (ICW) ER degradation assay in MCF-7 cells; format: cell-based; conditions: for DC50: MCF-7, ER degradation, read-out: MCF7 DC50
[4] = biological target: ER in T47D cells (Homo sapiens (Human), UniProt P03372); assay: In-cell Western (ICW) ER degradation assay in T47D cells; format: cell-based; conditions: for DC50: ER degradation
[5] = system: MCF-7 cells; assay: CellTiter-Glo (CTG) cell proliferation assay in MCF-7 cells; format: cell-based; conditions: MCF-7 cell proliferation
Excerpt: CellTiter-Glo® (CTG) Assays in MCF-7 and T47D Cell Lines.
In vitro Assay: MCF-7 and T47D CTG assay

[6] = MCF7, MCF-7, maximal ER degradation, 16 hrs treatment, read-out: MCF7 Dmax
[7] = maximal ER degradation, 16 hrs treatment, read-out: T47D Dmax
[8] = Homo sapiens, MCF7, 144 h, Day 6
[9] = MCF7, read-out: MCF7 Dmax, MCF-7, maximal ER degradation, 16 hrs treatment
[10] = read-out: T47D Dmax, T47D, maximal ER degradation, 16 hrs treatment

Sequence of ERα_LBD (GST) (P03372 311-547): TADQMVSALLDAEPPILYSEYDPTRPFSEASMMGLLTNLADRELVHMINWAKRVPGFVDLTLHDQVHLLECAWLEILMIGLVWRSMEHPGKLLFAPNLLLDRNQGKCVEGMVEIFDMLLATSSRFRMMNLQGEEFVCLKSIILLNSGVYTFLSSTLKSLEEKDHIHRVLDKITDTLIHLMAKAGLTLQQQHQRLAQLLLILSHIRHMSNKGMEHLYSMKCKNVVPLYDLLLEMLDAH
Sequence of ER in T47D cells (P03372 whole entry): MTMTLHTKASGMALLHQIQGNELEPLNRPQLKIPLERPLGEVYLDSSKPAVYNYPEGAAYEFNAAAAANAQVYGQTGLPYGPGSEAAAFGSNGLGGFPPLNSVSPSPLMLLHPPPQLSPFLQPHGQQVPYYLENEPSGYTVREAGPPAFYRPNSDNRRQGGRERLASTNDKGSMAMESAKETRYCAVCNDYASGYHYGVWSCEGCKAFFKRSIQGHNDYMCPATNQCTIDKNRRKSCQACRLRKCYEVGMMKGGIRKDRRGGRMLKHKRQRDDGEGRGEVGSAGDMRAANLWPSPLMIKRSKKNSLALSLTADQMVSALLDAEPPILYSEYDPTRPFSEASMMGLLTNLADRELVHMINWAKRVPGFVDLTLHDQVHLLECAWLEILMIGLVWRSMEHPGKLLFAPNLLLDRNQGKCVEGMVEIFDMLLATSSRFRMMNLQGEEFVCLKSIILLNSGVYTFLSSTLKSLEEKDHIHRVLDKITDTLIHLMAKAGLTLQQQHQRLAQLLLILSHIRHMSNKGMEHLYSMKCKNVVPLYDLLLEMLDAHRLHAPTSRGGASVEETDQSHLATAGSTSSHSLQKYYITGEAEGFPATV
Sequence of ER in MCF-7 cells (P03372 whole entry): as above
Sequence of CRBN/DDB1 (Q96SW2 whole entry, species assumed): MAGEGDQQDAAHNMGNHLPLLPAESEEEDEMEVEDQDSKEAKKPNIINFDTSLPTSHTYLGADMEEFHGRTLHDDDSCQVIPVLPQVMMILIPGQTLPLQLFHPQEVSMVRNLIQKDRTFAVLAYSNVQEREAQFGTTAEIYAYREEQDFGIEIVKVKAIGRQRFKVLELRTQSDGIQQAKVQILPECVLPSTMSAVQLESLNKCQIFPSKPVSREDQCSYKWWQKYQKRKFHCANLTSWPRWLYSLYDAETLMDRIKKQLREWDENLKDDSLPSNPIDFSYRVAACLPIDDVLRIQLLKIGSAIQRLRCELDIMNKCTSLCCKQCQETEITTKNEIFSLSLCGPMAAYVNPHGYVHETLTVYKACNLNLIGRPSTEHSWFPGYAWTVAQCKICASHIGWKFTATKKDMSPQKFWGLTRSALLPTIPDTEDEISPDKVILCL
Sequence of CRBN/DDB1 (Q16531 whole entry partner, species assumed): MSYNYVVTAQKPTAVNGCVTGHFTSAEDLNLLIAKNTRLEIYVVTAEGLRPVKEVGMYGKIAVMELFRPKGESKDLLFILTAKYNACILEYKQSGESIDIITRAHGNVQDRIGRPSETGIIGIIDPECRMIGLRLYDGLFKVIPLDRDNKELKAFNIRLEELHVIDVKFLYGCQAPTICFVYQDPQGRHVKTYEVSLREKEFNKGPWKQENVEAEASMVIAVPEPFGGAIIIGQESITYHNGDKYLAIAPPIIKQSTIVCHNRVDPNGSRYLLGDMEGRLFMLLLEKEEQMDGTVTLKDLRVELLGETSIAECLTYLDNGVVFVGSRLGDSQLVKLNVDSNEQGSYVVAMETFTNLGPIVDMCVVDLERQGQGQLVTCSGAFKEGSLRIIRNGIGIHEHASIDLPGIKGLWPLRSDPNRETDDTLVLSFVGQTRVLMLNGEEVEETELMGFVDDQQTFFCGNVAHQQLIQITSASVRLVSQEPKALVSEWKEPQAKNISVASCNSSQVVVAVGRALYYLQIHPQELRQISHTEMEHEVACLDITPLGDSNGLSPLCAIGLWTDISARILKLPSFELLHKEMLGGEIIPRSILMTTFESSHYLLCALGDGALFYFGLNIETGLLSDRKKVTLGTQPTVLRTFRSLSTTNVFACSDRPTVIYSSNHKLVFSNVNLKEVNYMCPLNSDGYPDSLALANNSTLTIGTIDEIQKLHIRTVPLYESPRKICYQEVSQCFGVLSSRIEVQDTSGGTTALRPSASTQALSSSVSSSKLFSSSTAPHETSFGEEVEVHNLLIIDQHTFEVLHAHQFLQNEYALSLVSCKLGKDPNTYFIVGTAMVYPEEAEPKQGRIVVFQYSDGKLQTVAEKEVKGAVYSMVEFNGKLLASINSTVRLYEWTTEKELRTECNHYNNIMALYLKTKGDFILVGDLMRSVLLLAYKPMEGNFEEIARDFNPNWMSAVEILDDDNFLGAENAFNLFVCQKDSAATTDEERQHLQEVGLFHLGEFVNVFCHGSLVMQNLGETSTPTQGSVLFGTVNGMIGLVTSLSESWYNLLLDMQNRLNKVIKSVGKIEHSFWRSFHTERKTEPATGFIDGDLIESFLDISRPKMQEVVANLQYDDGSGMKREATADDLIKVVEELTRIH

Molecule | IC50 [1] | IC50 [2] | Dmax [3, 6] | DC50 ([3]; 16 hrs treatment) | DC50 ([4]; 16 hrs treatment) | Dmax [4, 7] | IC50 [5, 8] | Dmax [3, 9] | Dmax [4, 10] | MCF7 Dmax ([3]; MCF-7, maximal ER degradation, 16 hrs treatment) | IC50 ([5]; Day 6, read-out: MCF7 IC50)
O=C1CC[C@H](N2Cc3cc4c(cc3C2=O)OC[C@@H]2CN(C[C@@H]3COC5(C3)CN(c3ccc([C@@H]6c7ccc(O)cc7CC[C@@H]6c6ccccc6)cc3)C5)CCN42)C(=O)N1 [Compound A73, (S)-3-((S)-3-(((R)-2-(4-((1R,2S)-6-hydroxy-2-phenyl-1,2,3,4-tetrahydronaphthalen-1-yl)phenyl)-5-oxa-2-azaspiro[3.4]octan-7-yl)methyl)-8-oxo-1,2,3,4,4a,5,8,10-octahydro-9H-pyrazino[1′,2′:4,5][1,4]oxazino[2,3-f]isoindol-9-yl)piperidine-2,6-dione] | 500 to 5000 nM | < 10 nM | > 75% | < 1 nM | < 1 nM | > 75% | 10 to 100 nM |  |  |  | 
O=C1CC[C@H](N2Cc3cc4c(cc3C2=O)OC[C@@H]2CN(C[C@H]3COC5(C3)CN(c3ccc([C@@H]6c7ccc(O)cc7CC[C@@H]6c6ccccc6)cc3)C5)CCN42)C(=O)N1 [Compound A72, (S)-3-((S)-3-(((S)-2-(4-((1R, 2S)-6-hydroxy-2-phenyl-1,2,3,4-tetrahydronaphthalen-1-yl)phenyl)-5-oxa-2-azaspiro [3.4]octan-7-yl)methyl)-8-oxo-1,2,3,4,4a,5,8,10-octahydro-9H-pyrazino[1′,2′:4,5][1,4]oxazino[2,3-f]isoindol-9-yl)-piperidine-2,6-dione] | 50 to 500 nM | < 10 nM | 50 to 75% | < 1 nM | < 1 nM | > 75% | < 10 nM |  |  |  | 
O=C1CC[C@H](N2Cc3c(ccc4c3OC[C@H]3CN(CC5CCN(c6ccc([C@@H]7c8ccc(O)cc8CC[C@@H]7c7ccccc7)cc6)CC5)CCN43)C2=O)C(=O)N1 [Compound A71, (S)-3-((R)-7-((1-(4-((1R,2S)-6-hydroxy-2-phenyl-1,2,3,4-tetra-hydronaphthalen-1-yl)phenyl)-piperidin-4-yl)methyl)-1-oxo-1,3,5,5a,6,7,8,9-octahydro-2H-pyrazino[1′,2′:4,5][1,4]oxazino [2,3-e]isoindol-2-yl)piperidine-2,6-dione] | 50 to 500 nM | < 10 nM | > 75% | < 1 nM |  |  | < 10 nM |  |  |  | 
O=C1CC[C@H](N2Cc3cc4c(cc3C2=O)OCC42CCN(C[C@@H]3COC4(CCN(c5ccc([C@H]6c7ccc(O)cc7CC[C@H]6c6ccccc6)cc5)CC4)C3)CC2)C(=O)N1 [Compound A25, (S)-3-(1′-(((R)-8-(4-((1S,2R)-6-hydroxy-2-phenyl-1,2,3,4-tetrahydronaphthalen-1-yl)phenyl)-1-oxa-8-azaspiro[4.5]decan-3-yl)methyl)-7-oxo-5,7-dihydro-2H,6H-spiro[furo[2,3-f]isoindole-3,4′-piperidin]-6-yl)piperidine-2,6-dione] |  | < 10 nM |  | < 1 nM | < 1 nM |  | < 10 nM | > 75% | > 75% |  | 
O=C1CC[C@H](N2Cc3c(ccc4c3OC[C@H]3CN(C[C@H]5COC6(C5)CN(c5ccc([C@@H]7c8ccc(O)cc8CC[C@@H]7c7ccccc7)cc5)C6)CCN43)C2=O)C(=O)N1 (single isomer, unassigned) [Compound A68] | < 50 nM | < 10 nM | 50 to 75% | < 1 nM | < 1 nM | > 75% | 10 to 100 nM |  |  |  | 
O=C1CC[C@H](N2Cc3cc4c(cc3C2=O)OC[C@H]2CN(C[C@@H]3COC5(CCN(c6ccc([C@@H]7c8ccc(O)cc8CC[C@@H]7c7ccccc7)cc6)CC5)C3)CCN42)C(=O)N1 (single isomer, unassigned) [Compound A18] | 500 to 5000 nM | > 100 nM | 50 to 75% | < 1 nM | < 1 nM | 50 to 75% |  |  |  |  | 
COc1cc(N2CCC3(CC2)CC(CN2CCC4(CC2)COc2c4ccc4c2CN([C@H]2CCC(=O)NC2=O)C4=O)C3)ccc1[C@@H]1c2ccc(O)cc2CC[C@@H]1c1ccccc1 [Compound A95, (S)-3-(1′-((7-(4-((1S,2S)-6-hydroxy-2-phenyl-1,2,3,4-tetra-hydronaphthalen-1-yl)-3-meth-oxyphenyl)-7-azaspiro[3.5]nonan-2-yl)methyl)-6-oxo-6,8-dihydro-2H,7H-spiro[furo[2,3-e]isoindole-3,4′-piperidin]-7-yl)piperidine-2,6-dione] | < 50 nM | < 10 nM |  | < 1 nM | < 1 nM |  |  | > 75% | > 75% |  | 
O=C1CC[C@H](N2Cc3c(ccc4c3OCC43CCN(CC4CCC5(CC4)CN(c4ncc([C@@H]6c7ccc(O)cc7CC[C@@H]6c6ccccc6)cn4)C5)CC3)C2=O)C(=O)N1 [Compound A154, (S)-3-(1′-((2-(5-((1S,2S)-6-hydroxy-2-phenyl-1,2,3,4-tetrahydronaphthalen-1-yl)pyrimidin-2-yl)-2-azaspiro[3.5]nonan-7-yl)methyl)-6-oxo-6,8-dihydro-2H,7H-spiro[furo[2,3-e]isoindole-3,4′-piperidin]-7-yl)piperidine-2,6-dione] | < 50 nM | < 10 nM |  | < 1 nM | < 1 nM |  |  | 50 to 75% | > 75% |  | 
COc1cc(N2CCC(CN3CCN4c5ccc(C(=O)N[C@H]6CCC(=O)NC6=O)nc5OC[C@H]4C3)CC2)c(F)cc1[C@@H]1c2ccc(O)cc2CC[C@@H]1c1ccccc1 [Compound A94, (R)-N-((S)-2,6-dioxopiperidin-3-yl)-3-((1-(2-fluoro-4-((1S,2S)-6-hydroxy-2-phenyl-1,2,3,4-tetrahydronaphthalen-1-yl)-5-methoxyphenyl)piperidin-4-yl)methyl)-1,2,3,4,4a,5-hexahydropyrazino[1,2-d]pyrido[2,3-b][1,4]oxazine-8-carboxamide] | > 5000 nM | < 10 nM | > 75% | < 1 nM | < 1 nM | > 75% |  |  |  |  | 
O=C1CC[C@H](NC(=O)c2ccc3c(n2)OC[C@H]2CN(CC4CCN(c5ccc([C@@H]6c7ccc(O)cc7CC[C@@H]6c6ccccc6)cc5)CC4)CCN32)C(=O)N1 (single isomer, unassigned) [Compound A6] | 500 to 5000 nM | < 10 nM | 50 to 75% | < 1 nM | < 1 nM | 50 to 75% |  |  |  |  | 
COc1cc(N2CCC(CN3CCN4c5ccc6c(c5OC[C@@H]4C3)CN([C@@H]3CCC(=O)NC3=O)C6=O)CC2)ccc1[C@H]1c2ccc(O)cc2CC[C@H]1c1ccccc1 (stereo in doubt) [Compound A24, (R)-3-((S)-7-((1-(4-((1R,2R)-6-hydroxy-2-phenyl-1,2,3,4-tetrahydronaphthalen-1-yl)-3-methoxyphenyl)piperidin-4-yl)methyl)-1-oxo-1,3,5,5a,6,7,8,9-oCtahydro-2H-pyrazino [1′,2′:4,5][1,4]oxazino[2,3-e]isoindol-2-yl)piperidine-2,6-dione] | 50 to 500 nM | < 10 nM | > 75% | < 1 nM | < 1 nM | > 75% | 10 to 100 nM |  |  |  | 
(S)-3-(1′-(((S)-2-(4-((1R,2S)-6- hydroxy-2-phenyl-1,2,3,4- tetrahydronaphthalen-1- yl)phenyl)-5-oxa-2- azaspiro[3.4]octan-7-yl)methyl)- 7-oxo-5,7-dihydro-2H,6H- spiro[furo[2,3-f]isoindole-3,4′- piperidin]-6-yl)piperidine-2,6- dione [Compound A76] | 50 to 500 nM | < 10 nM |  | < 1 nM |  |  |  |  |  | A (“A”: >=75%) | < 10 nM
